ChEMBL document CHEMBL1126835, “QSAR's from similarity matrices. Technique validation and application in the comparison of different similarity evaluation methods” (J Med Chem, 1993)

Species on record: Gallus gallus
Assay: Tested for anti-coccidial activity
Format: functional

| SMILES | Log 1/MEC |
| --- | --- |
| Cc1cc(Cl)cc(-n2ncc(=O)[nH]c2=O)c1 | 1.2 |
| CS(=O)(=O)c1ccc(-n2ncc(=O)[nH]c2=O)cc1 | -0.27 |
| O=c1cnn(-c2cc(Cl)cc(Cl)c2)c(=O)[nH]1 | 1.81 |
| Cc1cc(-n2ncc(=O)[nH]c2=O)cc(Cl)c1Oc1ccc(S(=O)(=O)NC2CC2)cc1Cl | 1.51 |
| Cc1cc(-n2ncc(=O)[nH]c2=O)cc(Cl)c1Sc1ccc(Cl)cc1 | 3.28 |
| O=c1cnn(-c2ccc([N+](=O)[O-])cc2)c(=O)[nH]1 | -0.03 |
| Cc1cc(-n2ncc(=O)[nH]c2=O)cc(C)c1C(=O)c1ccc(Cl)cc1 | 1.38 |
| CC(=O)c1ccc(Sc2c(C)cc(-n3ncc(=O)[nH]c3=O)cc2Cl)cc1 | 3.19 |
| CSc1ccc(Oc2c(C)cc(-n3ncc(=O)[nH]c3=O)cc2C)cc1C | 2.27 |
| Cc1cc(-n2ncc(=O)[nH]c2=O)cc(Cl)c1S(=O)(=O)c1ccc(Cl)cc1 | 1.71 |
| O=c1cnn(-c2cc(Cl)c(Cc3ccc(Cl)cc3)c(Cl)c2)c(=O)[nH]1 | 3.18 |
| O=c1cnn(-c2cc(Cl)c(S(=O)(=O)c3ccc(Cl)cc3)c(Cl)c2)c(=O)[nH]1 | 2.94 |
| Cc1cc(-n2ncc(=O)[nH]c2=O)ccc1C(O)c1ccccc1 (centres undefined) | 1.01 |
| O=c1cnn(-c2ccc(S(=O)(=O)N3CCOCC3)c(Cl)c2)c(=O)[nH]1 | 1.09 |
| O=c1cnn(-c2cccc(C(F)(F)F)c2)c(=O)[nH]1 | 0.93 |
| Cc1cc(-n2ncc(=O)[nH]c2=O)ccc1Oc1ccc(S(C)(=O)=O)cc1 | 1.97 |
| CC(=O)c1ccc(Oc2c(C)cc(-n3ncc(=O)[nH]c3=O)cc2Cl)cc1 | 2.27 |
| O=c1cnn(-c2ccc(Oc3ccc(Cl)cc3Cl)c(Cl)c2)c(=O)[nH]1 | 1.71 |
| Cc1cc(-n2ncc(=O)[nH]c2=O)cc(C)c1[S+]([O-])c1ccc(Cl)cc1 (centres undefined) | 2.58 |
| O=c1cnn(-c2ccc(C(O)c3ccc(Cl)cc3)c(Cl)c2)c(=O)[nH]1 (centres undefined) | 2.26 |
| N#Cc1cccc(-n2ncc(=O)[nH]c2=O)c1 | 0.85 |
| CCN(C)S(=O)(=O)c1ccc(Oc2c(C)cc(-n3ncc(=O)[nH]c3=O)cc2Cl)c(Cl)c1 | 2.11 |
| COc1c(Cl)cc(-n2ncc(=O)[nH]c2=O)cc1Cl | 0.06 |
| Cc1cc(-n2ncc(=O)[nH]c2=O)cc(Cl)c1Oc1ccc(C(C)O)cc1 (centres undefined) | 2.27 |
| O=c1cnn(-c2cc(Cl)c(Sc3ccc(Cl)cc3)c(Cl)c2)c(=O)[nH]1 | 3.3 |
| O=c1cnn(-c2ccc(F)c(C(F)(F)F)c2)c(=O)[nH]1 | 1.26 |
| Cc1cc(-n2ncc(=O)[nH]c2=O)ccc1Oc1ccc(Br)cc1 | 1.7 |

| SMILES | Log 1/MEC |
| --- | --- |
| O=c1cnn(-c2ccc(Oc3ccc(I)cc3)c(Cl)c2)c(=O)[nH]1 | 1.77 |
| Cc1cc(-n2ncc(=O)[nH]c2=O)cc(C)c1S(=O)(=O)c1ccc(Cl)cc1 | 2.59 |
| O=c1cnn(-c2ccc(S(=O)(=O)c3ccc(Cl)cc3)cc2)c(=O)[nH]1 | 1.96 |
| CSc1ccc(Oc2c(C)cc(-n3ncc(=O)[nH]c3=O)cc2C)cc1 | 2.25 |
| Cc1cc(-n2ncc(=O)[nH]c2=O)cc(C)c1Sc1ccc(Cl)cc1 [TIAZURIL] | 2.86 |
| Cc1cc(C)cc(-n2ncc(=O)[nH]c2=O)c1 | 0.86 |
| COc1cc(-n2ncc(=O)[nH]c2=O)cc(OC)c1OC | -0.55 |
| O=c1cnn(-c2ccc(Cc3ccc(Cl)cc3)c(Cl)c2)c(=O)[nH]1 | 1.64 |
| O=c1cnn(-c2ccc(Oc3ccccc3)cc2)c(=O)[nH]1 | -0.25 |
| O=c1cnn(-c2ccc(Br)c(C(F)(F)F)c2)c(=O)[nH]1 | 1.35 |
| N#CC(c1ccc(Cl)cc1)c1c(Cl)cc(-n2ncc(=O)[nH]c2=O)cc1Cl (centres undefined) [DICLAZURIL] | 3.61 |
| Cc1cc(-n2ncc(=O)[nH]c2=O)ccc1Oc1ccc(Cl)cc1Cl | 1.69 |
| O=c1cnn(-c2ccccc2)c(=O)[nH]1 | -0.42 |
| O=c1cnn(-c2ccc(Sc3ccc(Cl)cc3)c(Cl)c2)c(=O)[nH]1 | 2.26 |
| O=c1cnn(-c2cccc(Cl)c2)c(=O)[nH]1 | 0.25 |
| O=c1cnn(-c2ccc(S(=O)(=O)c3ccc(Br)cc3)cc2)c(=O)[nH]1 | 1.71 |
| O=C(c1ccc(Cl)cc1)c1c(Cl)cc(-n2ncc(=O)[nH]c2=O)cc1Cl | 2.9 |
| Cc1cc(-n2ncc(=O)[nH]c2=O)cc(C)c1S(=O)(=O)N1CCOCC1 | 1.39 |
| Cc1cc(-n2ncc(=O)[nH]c2=O)ccc1Oc1ccc(Cl)cc1 | 0.74 |
| Cc1cc(-n2ncc(=O)[nH]c2=O)cc(Cl)c1Oc1ccc(Cl)cc1 | 1.98 |
| O=c1cnn(-c2ccc(Sc3ccc4ccccc4c3)c(Cl)c2)c(=O)[nH]1 | 0.48 |
| COc1cc(OC)cc(-n2ncc(=O)[nH]c2=O)c1 | -0.3 |
| CSc1ccc(Oc2ccc(-n3ncc(=O)[nH]c3=O)cc2C)cc1 | 2.23 |
| O=c1cnn(-c2ccc(S(=O)(=O)c3ccccc3)cc2)c(=O)[nH]1 | 1.04 |
| CSc1ccc(Oc2ccc(-n3ncc(=O)[nH]c3=O)cc2Cl)cc1 | 1.98 |
| O=c1cnn(-c2ccc(Oc3ccc4cc(Br)ccc4c3)c(Cl)c2)c(=O)[nH]1 | 1.77 |
| O=c1cnn(-c2cc(Cl)c(S(=O)(=O)N3CCOCC3)c(Cl)c2)c(=O)[nH]1 | 1.13 |

Biological target: T1, Monoamine oxidase (Homo sapiens, UniProt P21397+P27338)
T1 sequence (P21397 whole entry): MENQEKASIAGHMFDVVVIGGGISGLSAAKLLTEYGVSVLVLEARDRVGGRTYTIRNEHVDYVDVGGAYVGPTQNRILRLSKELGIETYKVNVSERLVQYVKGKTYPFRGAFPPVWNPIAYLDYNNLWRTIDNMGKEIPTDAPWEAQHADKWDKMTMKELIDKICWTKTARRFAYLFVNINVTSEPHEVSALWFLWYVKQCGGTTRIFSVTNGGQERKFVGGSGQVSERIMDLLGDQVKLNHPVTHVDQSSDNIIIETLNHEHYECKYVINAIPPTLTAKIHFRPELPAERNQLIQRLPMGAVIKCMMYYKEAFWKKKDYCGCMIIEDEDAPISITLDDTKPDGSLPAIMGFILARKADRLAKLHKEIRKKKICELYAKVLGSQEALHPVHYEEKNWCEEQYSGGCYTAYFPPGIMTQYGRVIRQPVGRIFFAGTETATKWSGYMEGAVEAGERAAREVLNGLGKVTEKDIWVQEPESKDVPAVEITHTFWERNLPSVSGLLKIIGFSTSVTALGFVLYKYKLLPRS
T1 sequence (P27338 whole entry): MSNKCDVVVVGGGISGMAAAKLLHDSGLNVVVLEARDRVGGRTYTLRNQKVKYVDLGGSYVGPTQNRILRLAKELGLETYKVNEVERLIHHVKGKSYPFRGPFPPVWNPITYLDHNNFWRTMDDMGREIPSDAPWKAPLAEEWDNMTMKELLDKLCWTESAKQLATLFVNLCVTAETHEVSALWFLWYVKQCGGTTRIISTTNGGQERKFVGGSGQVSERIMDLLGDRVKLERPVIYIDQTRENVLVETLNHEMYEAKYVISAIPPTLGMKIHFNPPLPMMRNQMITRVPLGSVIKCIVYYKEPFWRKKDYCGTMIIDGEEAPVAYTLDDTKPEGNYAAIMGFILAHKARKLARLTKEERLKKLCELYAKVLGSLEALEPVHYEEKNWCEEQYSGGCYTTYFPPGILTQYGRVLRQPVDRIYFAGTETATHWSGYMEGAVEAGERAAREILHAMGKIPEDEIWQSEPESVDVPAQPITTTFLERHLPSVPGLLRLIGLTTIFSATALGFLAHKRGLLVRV
Assay: Binding affinity towards monoaminooxidase Relative to MPTP
Format: protein assay

| SMILES | Relative activity |
| --- | --- |
| Clc1ccc(C2=CCNCC2)cc1 | 2 |
| CC1CN(C)CC=C1c1ccccc1 (centres undefined) | 2 |
| CCC1=CCN(C)CC1 | 2 |
| COc1cccc(C2=CCN(C)CC2)c1 | 2 |
| Cc1ccc(C2=CCN(C)CC2)cc1 | 2 |
| CN1CC=C(c2cccn2C)CC1 | 3 |
| Fc1ccc(C2=CCNCC2)cc1 | 2 |
| CN1CCc2c([nH]c3ccccc23)C1 | 2 |
| C1=C(c2ccccc2)CCN(CC2CC2)C1 | 1 |
| CN1CC=C(c2cccc(F)c2)CC1 | 3 |
| N#CCCC(=O)N1CC=C(c2ccccc2)CC1 | 1 |
| CN1CC=C(c2ccccc2F)CC1 | 3 |
| CN1CC=C(Cc2ccccc2)CC1 | 3 |
| CCCCN1CC=C(c2ccccc2)CC1 | 1 |
| CC(C)N1CC=C(c2ccccc2)CC1 | 1 |
| C1=C(c2ccccc2)CCN(Cc2ccccc2)C1 | 1 |
| Cc1cccc(C)c1C1=CCN(C)CC1 | 3 |
| CN1CC=C(c2ccc(Cl)cc2)CC1 | 2 |
| CN1CC=C(c2cccc(Br)c2)CC1 | 3 |
| CN1CC=C(c2ccc(F)cc2)CC1 | 2 |

| SMILES | Relative activity |
| --- | --- |
| CN1CC=C(c2ccccc2C(F)(F)F)CC1 | 3 |
| CCN1CC=CCC1 | 2 |
| C/C(=C\CN(C)C)c1ccccc1 | 3 |
| CN1CC=C(C(C)(C)C)CC1 | 2 |
| CN1CC=C(c2cccs2)CC1 | 2 |
| COc1ccccc1C1=CCN(C)CC1 | 3 |
| Cc1cccc(C2=CCN(C)CC2)c1 | 3 |
| C1=C(c2ccccc2)CCNC1 | 3 |
| CN1CC=C(c2ccccc2)CC1 | 3 |
| CC1=C(c2ccccc2)CCN(C)C1 | 2 |
| CCN1CC=C(c2ccccc2)CC1 | 2 |
| CN1CCC(c2ccccc2)CC1 | 1 |
| C=CCN1CC=C(c2ccccc2)CC1 | 1 |
| Cc1ccccc1C1=CCN(C)CC1 | 3 |
| CN1CC=C(c2cccc(Cl)c2)CC1 | 3 |
| CCc1ccccc1C1=CCN(C)CC1 | 3 |
| CN1CC=C(C2CCCCC2)CC1 | 3 |
| CN1CC=C(c2ccccc2Cl)CC1 | 3 |
| CCCN1CC=C(c2ccccc2)CC1 | 1 |
| OCCN1CC=C(c2ccccc2)CC1 | 2 |
